Patent publication US9260467B2, “Sialic acid dimers” (priority 2011, dated 2016)

Columns and labels:
Siglec-2 (CD22) [1] = target: T1, Siglec-2 (CD22) (Homo sapiens, UniProt P20273); experiment: known affinity assay (Bock et al., Methods Mol. Biol. 2006), 'Literature assay'; type: binding; settings: relative Inhibitory Potency; BPC Neu5Ac = 1
T1 sequence (P20273 20-847): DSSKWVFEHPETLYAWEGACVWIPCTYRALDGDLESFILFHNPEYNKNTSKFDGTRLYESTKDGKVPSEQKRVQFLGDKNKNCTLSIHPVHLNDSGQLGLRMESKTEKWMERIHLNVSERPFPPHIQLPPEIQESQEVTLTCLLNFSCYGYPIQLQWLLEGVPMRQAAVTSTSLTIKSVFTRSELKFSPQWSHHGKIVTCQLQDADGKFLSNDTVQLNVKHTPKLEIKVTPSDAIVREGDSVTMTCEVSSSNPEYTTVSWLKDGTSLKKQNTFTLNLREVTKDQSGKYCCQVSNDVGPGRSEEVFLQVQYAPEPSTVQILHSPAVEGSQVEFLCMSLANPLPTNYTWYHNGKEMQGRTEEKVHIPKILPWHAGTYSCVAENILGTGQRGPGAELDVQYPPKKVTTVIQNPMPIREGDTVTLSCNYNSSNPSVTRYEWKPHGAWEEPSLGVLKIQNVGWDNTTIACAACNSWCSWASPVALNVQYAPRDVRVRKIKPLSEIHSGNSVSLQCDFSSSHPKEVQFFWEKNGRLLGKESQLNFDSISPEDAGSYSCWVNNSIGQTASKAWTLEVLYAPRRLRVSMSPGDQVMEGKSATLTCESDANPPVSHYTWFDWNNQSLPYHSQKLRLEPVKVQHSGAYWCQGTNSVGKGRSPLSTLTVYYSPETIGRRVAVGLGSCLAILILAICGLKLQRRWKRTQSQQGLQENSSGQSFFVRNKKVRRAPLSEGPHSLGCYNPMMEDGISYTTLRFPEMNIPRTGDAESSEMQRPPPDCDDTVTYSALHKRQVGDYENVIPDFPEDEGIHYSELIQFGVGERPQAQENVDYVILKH
Procedure: The affinity of a number of dimers was measured using a known assay (Bock et al., Methods Mol. Biol. 2006, 347, 359-375). […] Exact values were undeterminable, however, owing to fluctuating values. In order to be able to determine the affinity of the new derivatives reliably, a new assay was drawn up. For this assay, compound 155 was prepared.

Siglec-2 (CD22) [2] = target: T1, Siglec-2 (CD22); experiment: new affinity assay: displacement of biotinylated compound 155 from sialidase-treated Daudi cells, FACS with streptavidin-PE; type: binding; parameters: endogenous in cells; host or cells: Daudi (human B-cell lymphoma line); settings: for rIP: Table II, rIP values set relative to compound 38, Daudi cells, displacement of compound 155; for rIP (New assay): relative Inhibitory Potency from IC50, human B-cell lymphoma line Daudi, compound 38 = 1
Procedure, shortened: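 Sialidase-treated Daudi cells preincubated on ice 15 min with inhibitor (1 mM to 1×10^−7 mM), then 20 min with biotinylated probe (4 μM as added); bound probe detected by streptavidin-PE flow cytometry. IC50 converted to relative inhibitory potency (rIP) against a reference substance.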

Row | SMILES | rIP (Literature assay) (Siglec-2 (CD22) [1]) | rIP (Siglec-2 (CD22) [2]) | rIP (New assay) (Siglec-2 (CD22) [2])
1 | CO[C@]1(C(=O)[O-])C[C@H](O)[C@@H](NC(C)=O)[C@H]([C@H](O)[C@H](O)CNC(=O)c2ccc(-c3ccccc3)cc2)O1.[Na+] [BPC Neu 5Ac, reference compound] | 1 |  | 
2 | CC(=O)N[C@H]1[C@H]([C@H](O)[C@H](O)CNC(=O)c2ccc(-c3ccccc3)cc2)O[C@@](OCCCSCCNC(=O)c2ccc(C(=O)NCCSCCCO[C@]3(C(=O)[O-])C[C@H](O)[C@@H](NC(C)=O)[C@H]([C@H](O)[C@H](O)CNC(=O)c4ccc(-c5ccccc5)cc4)O3)cc2)(C(=O)[O-])C[C@@H]1O.[Na+].[Na+] [Compound 21] | >2000 | 2979 | 2979
3 | CC(=O)N[C@H]1[C@H]([C@H](O)[C@H](O)CO)O[C@@](OCCCSCCNC(=O)c2ccc(C(=O)NCCSCCCO[C@]3(C(=O)[O-])C[C@H](O)[C@@H](NC(C)=O)[C@H]([C@H](O)[C@H](O)CO)O3)cc2)(C(=O)[O-])C[C@@H]1O.[Na+].[Na+] [Compound 38] | ~1-3 | 1 | 1
4 | CC(=O)N[C@H]1[C@H]([C@H](O)[C@H](O)CNC(=O)Cc2ccc(-c3ccccc3)cc2)O[C@@](OCCCSCCNC(=O)c2ccc(-c3ccc(C(=O)NCCSCCCO[C@]4(C(=O)[O-])C[C@H](O)[C@@H](NC(C)=O)[C@H]([C@H](O)[C@H](O)CNC(=O)Cc5ccc(-c6ccccc6)cc5)O4)cc3)cc2)(C(=O)[O-])C[C@@H]1O.[Na+].[Na+] [Compound 128] |  | 19 | 
5 | CC(=O)N[C@H]1[C@H]([C@H](O)[C@H](O)CNC(=O)C#Cc2ccccc2)O[C@@](OCCCSCCNC(=O)c2ccc(-c3ccc(C(=O)NCCSCCCO[C@]4(C(=O)[O-])C[C@H](O)[C@@H](NC(C)=O)[C@H]([C@H](O)[C@H](O)CNC(=O)C#Cc5ccccc5)O4)cc3)cc2)(C(=O)[O-])C[C@@H]1O.[Na+].[Na+] [Compound 129] |  | 21 | 
6 | CC(=O)N[C@H]1[C@H]([C@H](O)[C@H](O)CNC(=O)c2ccc(-c3c4ccc(=O)cc-4oc4cc(O)ccc34)c(C(=O)[O-])c2)O[C@@](OCCCSCCNC(=O)c2ccc(-c3ccc(C(=O)NCCSCCCO[C@]4(C(=O)[O-])C[C@H](O)[C@@H](NC(C)=O)[C@H]([C@H](O)[C@H](O)CNC(=O)c5ccc(-c6c7ccc(=O)cc-7oc7cc(O)ccc67)c(C(=O)[O-])c5)O4)cc3)cc2)(C(=O)[O-])C[C@@H]1O.[Na+].[Na+].[Na+].[Na+] [Compound 131] |  | 4 | 
7 | CC(=O)N[C@H]1[C@H]([C@H](O)[C@H](O)CNC(=O)c2ccc(-c3ccccc3)cc2)O[C@@](OCCC[S+]([O-])CCNC(=O)c2ccc(C(=O)NCC[S+]([O-])CCCO[C@]3(C(=O)[O-])C[C@H](O)[C@@H](NC(C)=O)[C@H]([C@H](O)[C@H](O)CNC(=O)c4ccc(-c5ccccc5)cc4)O3)cc2)(C(=O)[O-])C[C@@H]1O.[Na+].[Na+] (some centres unmarked) [Compound 132] |  | 212 | 
8 | CC(=O)N[C@H]1[C@H]([C@H](O)[C@H](O)CNc2c(NCc3ccccc3)c(=O)c2=O)O[C@@](OCCCSCCNC(=O)c2ccc(C(=O)NCCSCCCO[C@]3(C(=O)[O-])C[C@H](O)[C@@H](NC(C)=O)[C@H]([C@H](O)[C@H](O)CNc4c(NCc5ccccc5)c(=O)c4=O)O3)cc2)(C(=O)[O-])C[C@@H]1O.[Na+].[Na+] [Compound 134] |  | 70 | 
9 | CC(=O)N[C@H]1[C@H]([C@H](O)[C@H](O)CNC(=O)c2ccc(-c3ccccc3)cc2)O[C@@](OCCCSCCNC(=O)c2ccc(C(=O)NCCSCCCO[C@]3(C(=O)[O-])C[C@H](O)[C@@H](NC(C)=O)[C@H]([C@H](O)[C@H](O)CNC(=O)c4ccc(-c5ccccc5)cc4)O3)cc2)(C(=O)[O-])C[C@@H]1OC(=O)c1ccccc1.[Na+].[Na+] [Compound 147] |  | 32069 | 
10 | CC(=O)N[C@H]1[C@H]([C@H](O)[C@H](O)CNC(=O)c2ccc(-c3ccccc3)cc2)O[C@@](OCCCSCC(NC(=O)c2ccc(C(=O)NC(CSCCCO[C@]3(C(=O)[O-])C[C@H](O)[C@@H](NC(C)=O)[C@H]([C@H](O)[C@H](O)CNC(=O)c4ccc(-c5ccccc5)cc4)O3)C(=O)[O-])cc2)C(=O)[O-])(C(=O)[O-])C[C@@H]1O.[Na+].[Na+].[Na+].[Na+] (some centres unmarked) [Compound 149] |  | 378 | 
